{"source": "patent US8969313B2", "about": "“Methods and compounds for preventing and treating a tumour” (Agency for Science, Technology and Research, priority 2007, dated 2015)", "key": {"[1]": {"system": "DACT1 and DACT2 promoters", "assay": "Methylation specific PCR (MSP) of DACT promoters after 5-AzaC", "type": "cell-based, human", "conditions": "HCT116 cells", "text": "(§1) A: Hierarchical clustering of Wnt inhibitors (upper) and Wnt/β-catenin target genes (lower) in human colorectal tumors (T) and matched normal mucosa (N). White signals in the upper panel indicate above-mean expression; white signals in the lower panel indicate below-mean expression. B: RT-PCR analysis of SFRP1 and DACT1, 2 and 3 from random-selected 8 pairs of human colorectal tumor and matched mucosa. C: Methylation status of SFRP1 and DACT3 in 8 tumors determined by methylation specific PCR (MSP) assay. M1, M2, M3 and M4 represent the examined PCR regions covering the entire CpG island of DACT3 promoter. D: RT-PCR analysis of SFRP1 and DACT1, 2 and 3 in a panel of colorectal cancer cell lines compared to the normal tissue. E: Methylation status of SFRP1 and DACT1, 2 and 3 in colorectal cancer cell lines. F: Determination of methylation status of CpG sites by sequencing of bisulphite-modified DNA from normal and colorectal cancer cell lines. Arrows indicate the transcription start sites. Open cycles represent unmethylated CpGs; closed cycles denote methylated CpGs. […]\nThe CpG island DNA methylation status was determined by PCR analysis after bisulfited modification and followed by methylation-specific PCR (MSP) and bisulfite genomic sequencing (BGS) (Yoshikawa, H., et al., Nat Genet (2001) 28, 29-35). […]"}, "[2]": {"system": "SFRP1, DACT1, DACT2, DACT3", "assay": "RT-PCR analysis of SFRP1 and DACT1, 2 and 3 after 5-AzaC", "type": "cell-based, human", "conditions": "HCT116 cells, 5-AzaC 5 μM for 3 days", "text": "as §1, with “CpGs. G: MSP analysis of DACT1, 2 and 3 promoters in HCT116 cells untreated or treated with 5-AzaC and in HCT116-DNMT1/DNMT3b−/− (DKO) cells. H: RT-PCR analysis of SFRP1 and DACT1, 2 and 3 in HCT116 and DLD1 cells treated with 5-AzaC (5 μM) for 3 days and in DKO cells.” for “CpGs.”"}, "[3]": {"system": "histone modifications", "assay": "Immunoblotting of bulk histone modifications in HT29 and SW480 cells", "type": "cell-based, human", "description": "FIG. 5. Effects of combination of DZNep and TSA on DACT3 and histone modifications. A: DACT3 mRNA expression analysis using Illumina Beadarray in DLD1 cells treated with 5 μM DZNep, 5 μM 5-AzaC, 200 nM TSA or their combinations. The data shown represents Mean±SD of three independent experiments. B: Indicated colorectal cancer cell lines were treated with DZNep, TSA or both. RNA was harvested and subjected to array analysis (1: DCAT2, 2: DACT2, 3: DCAT3, 4: DKK4, 5: DKK3, 6: DKKL1, 7: DKK2, 8: DKK3, 9: DKK1, 10: SFRP4, 11: SFRP2, 12: SFRP5, 13: SFRP3, 14: SFRP1). Changes of expression of known Wnt/β-catenin antagonists are shown. C: Immunoblotting analysis of bulk histone modifications induced by DZNep, TSA or both in HT29 cells and SW480 cells. D: ChIP analysis of indicated the changes of histone marks at the DACT1 and DACT3 loci in HT29 cells untreated (white bars) or treated with DZNep and TSA (black bars). The values represent the normalized enrichments against the changes of a low background region before and after the drug treatment. The data represent Mean±SD of three independent experiments.\nHuman tissue samples were obtained from Singapore Tissue Network using protocols approved by institutional Review Board of National University of Singapore; informed consent was obtained from each individual who provided the tissues. The colorectal cancer cell lines and non-transformed cell lines used in this study were purchased from the American Type Culture Collection (Manassas, Va.). HCT116 cells with genetic disruption of DNMT1 (DNA methyltransferase 1) and DNMT3B (DNA methyltransferase 3B) (HCT116 DKO) were kindly provided by Dr. Bert Vogelstein (Johns Hopkins University, MD). For drug treatment, cells were seeded the day before the drug treatment. Cells were treated with 5 μM 3-Deazaneplanocin A (DZNep) (obtained from Dr. Victor E. Marquez at National Cancer Institute, USA) or 5 μM 5-aza-2′-deoxycytidine (5-AzaC; Sigma) for 72 hours and Trichostatin A (TSA; Cell Signaling) at 100-200 nM for 24 hours. […]"}, "[4]": {"system": "DACT3, DVL2, β-catenin", "assay": "Immunoblot analysis of DACT3, DVL2 and β-catenin in SW480 and DLD1 cells", "type": "cell-based, human", "conditions": "DZNep 5 μM, TSA 100 nM", "description": "FIG. 6. Combination of DZNep and TSA results in blockade of Wnt/β-catenin signaling and massive apoptosis in colorectal cancer cells. A: Immunoblot analysis of DACT3, DVL2, total β-catenin, and non-phosphorylated β-catenin (Active-β-catenin) in SW480 and DLD1 cells treated with DZNep (5 μM), TSA (100 nM) or both. B: Immunofluorescent images of DLD1 and SW480 cells treated with DZNep/TSA. β-catenin staining is red, nuclear staining is green (DRAQ5). C: Indicated colorectal cancer cell lines were treated as above; RNA was harvested and subjected to array analysis. Changes of expression of known Wnt/β-catenin target genes were shown using gene clustering program. […] D: Numeric values of data depicted in FIG. 6C (D+T=DZNep+TSA). E: DLD1 and HT29 cells were treated as in A, and cell death was determined by PI staining and FACS analysis. The data represent Mean±SD of three independent experiments. F: HT29 cells were treated as in A, and Caspase 3 activity was measured by FACS analysis. G: HT29 cells were treated as in A, followed by JC-1 staining and FACS analysis.\nHuman tissue samples were obtained from Singapore Tissue Network using protocols approved by institutional Review Board of National University of Singapore; informed consent was obtained from each individual who provided the tissues. The colorectal cancer cell lines and non-transformed cell lines used in this study were purchased from the American Type Culture Collection (Manassas, Va.). HCT116 cells with genetic disruption of DNMT1 (DNA methyltransferase 1) and DNMT3B (DNA methyltransferase 3B) (HCT116 DKO) were kindly provided by Dr. Bert Vogelstein (Johns Hopkins University, MD). For drug treatment, cells were seeded the day before the drug treatment. Cells were treated with 5 μM 3-Deazaneplanocin A (DZNep) (obtained from Dr. Victor E. Marquez at National Cancer Institute, USA) or 5 μM 5-aza-2′-deoxycytidine (5-AzaC; Sigma) for 72 hours and Trichostatin A (TSA; Cell Signaling) at 100-200 nM for 24 hours. For 5-AzaC treatment, the medium was replaced with freshly added 5-AzaC for every 24 h. For co-treatment of cells with DZNep and TSA, DZNep was added for 24 hours followed by TSA for additional 24 hours for gene expression analysis and 48 hours for FACS analysis.\nImmunoblotting was performed as described previously (Tan et al., 2007, supra). The blots were probed with the following antibodies: anti-H3K27me3 (07-449), anti-H3K9me3 (07-442), anti-H3K9/K14 ac (06-599), anti-H3K4me3 (07-473) and anti-active β-catenin(05-665), were purchased from Upstate. Anti-H4K20me3 (ab9053) was from Abcam. Anti-β-catenin (6B3) and anti-H3 (3H1) were from Cell Signaling and anti-DVL2 (sc-8026) was from Santa Cruz. […]"}, "[5]": {"system": "polycomb-repressive complex 2", "conditions": "Tan et al., 2007; cited from earlier work"}, "[6]": {"assay": "in vivo", "conditions": "BALB/c nude, mouse, ip"}, "[7]": {"assay": "Initial maximum tolerated dose (MTD) study of DZNep"}, "[8]": {"type": "in vivo", "description": "FIG. 16. […]. The body weight was maintained at >80% in all groups. […].\nFor the HCT-116 study, nude mice that had received HCT-116 xenografts at day −7 were assigned into 4 groups of 7 animals each, and drug treatment was initiated on day 0 (see FIG. 1 for protocol outline): Group 1—vehicle control for both used compounds (Saline i.p. 3×/week in the morning, MC/Tween p.o. q.d. in the afternoon); Group 2—SAHA (200 mg/kg q.d. p.o. in the afternoon, plus the DZNep vehicle Saline 3/week i.p. in the morning); […]. The study was terminated on Day +14.\nThe study was conducted as using the protocol described in FIG. 15. The combination study was started using four groups of BALB/c nude mice bearing HCT-116 tumors (n=7 mice/group, initial mean tumor volume 6 days after inoculation: 91-107 mm^3). […]"}}, "data": [{"smiles": "Nc1ncn([C@H]2C[C@H](O)[C@@H](CO)O2)c(=O)n1", "note": "[5-AzaC, 5-aza-2′-deoxycytidine]", "values": [{"measurement": "methylation at the DACT1 and DACT2 promoters", "setting": "[1]", "result": "decreased methylation"}, {"measurement": "expression of SFRP1, DACT1, DACT2 and DACT3", "setting": "[2]", "result": "increased expression of SFRP1, DACT1 and DACT2, but not DACT3"}]}, {"smiles": "Nc1nccc2c1ncn2C1C=C(CO)C(O)C1O", "note": "(stereo not drawn) [DZNep, 5-(4-amino-1H-imidazo[4,5-c]pyridin-1-yl)-3-(hydroxymethyl)-3-cyclopentene-1,2-diol]", "values": [{"measurement": "H3K4me3 (bulk histone, Western blot)", "setting": "[3]", "result": "slight decrease"}, {"measurement": "H3K9me3 (bulk histone, Western blot)", "setting": "[3]", "result": "little effect"}, {"measurement": "H3K27me3 and H4K20me3 (bulk histone, Western blot)", "setting": "[3]", "result": "strong reduction"}, {"measurement": "DACT3 protein levels", "setting": "[4]", "result": "did not cause such changes"}, {"measurement": "DVL2 levels", "setting": "[4]", "result": "did not cause such changes"}, {"measurement": "effect on polycomb-repressive complex 2 and histone methylation", "setting": "[5]", "result": "depletes components of the polycomb-repressive complex 2 and inhibits histone methylation"}, {"measurement": "MTD at 5 day", "setting": "[6]", "result": 10, "unit": "mg/kg"}, {"measurement": "highest weight loss", "setting": "[7]; 10 mg/kg group, day 2", "result": 2.2, "unit": "%"}, {"measurement": "deaths", "setting": "[7]; 15 mg/kg group, day 3, in the absence of significant weight loss", "result": "Two of three mice died"}]}, {"smiles": "O=C(CCCCCCC(=O)Nc1ccccc1)NO", "note": "[SAHA, N′-hydroxy-N-phenyl-octanediamide]", "values": [{"measurement": "treatment-related death (TRD)", "setting": "[8]; day 10, body weight 82%, n=7/group", "result": 1}, {"measurement": "body weight", "setting": "[8]; day 14, DZNep 5 mg/kg i.p. 3×/week, SAHA 200 mg/kg p.o. q.d., HCT-116 tumour-bearing mice", "result": 96.8, "unit": "%"}]}, {"smiles": "CC(/C=C/C(=O)NO)=C\\[C@@H](C)C(=O)c1ccc(N(C)C)cc1", "note": "[TSA, 7-[R-(E,E)]-[4-(dimethylamino)phenyl]-N-hydroxy-4,6-dimethyl-7-oxo-2,4-heptadienamide, reference compound]", "values": [{"measurement": "DACT3 protein levels", "setting": "[4]", "result": "did not cause such changes"}, {"measurement": "DVL2 levels", "setting": "[4]", "result": "did not cause such changes"}]}]}
